Consider eleven compounds from patent publication US7304037B2, “Cytostatic conjugates with integrin ligands” (priority 2001, dated 2007).

A word on the IC50: it is the point on the concentration scale where inhibition reaches its midpoint.

Series [1] has as its system renal xenograft (RXF 944). From the text:
(§1) In all in-vivo experiments for investigating the inhibition of tumour growth, athymic nude mice (NMRI nu/nu strain) were used. The tumour was developed by serial passage in nude mice, The human origin of the tumour was confirmed by isoenzymatic and immunohistochemical methods.
(§2) The tumour was implanted subcutaneously in both flanks of nu/nu nude mice 6 to 8 weeks old. […] The mice were assigned to the treatment group or the control group (5 mice per group having 8 to 10 assessable tumours) by randomization.
(§3) The size of the tumours was measured in two dimensions by means of a slide gauge. The tumour volume which correlated well with the cell count, was then used for all assessments. The volume was calculated according to the formula “length×breadth×breadth/2” ([a×b^2]/2; a and b representing two diameters arranged at right angles).
(§4) The values of the relative tumour volume (RTV) were calculated for each individual tumour by dividing the tumour size on day X with the tumour size on day 0 (at the time of randomization). The average values of the RTV were then used for the further assessment.
(§5) The inhibition of the increase of the tumour volume (tumour volume of the test group/control group, T/C, in percent) was the final measured value.

Series [2] deals with T1, αvβ3 receptor (αvβ3 from human A375 cells) (Homo sapiens, UniProt P05106+P06756).
T1 construct: αvβ3 from human A375 cells was purified analogously to a procedure described by Wong et al; endogenous in cells; host or cells: human A375 cells (endogenous receptor, detergent-solubilised and purified)
Nature of the series: αvβ3 binding test (echistatin displacement, SPA). The procedure: αvβ3 from human A375 cells was purified analogously to a procedure described by Wong et al. in Molecular Pharmacology 50, 529–537 (1996). In each case, 10 μL of αvβ3 (5 ng) in TBS pH 7.6, 2 mM CaCl2, 1 mM MgCl2, 1% n-octylglucopyranoside (Sigma); 10 μL of test substance in TBS pH 7.6, 0.1% DMSO and 45 μL of TBS pH 7.6, 2 mM CaCl2, 1 mM MgCl2, 1 mM MnCl2 were incubated at room temperature for 1 h. In each case, 25 μL of WGA SPA beads (Amersham, 4 mg/ml) and 10 μL of echistatin (0.1 μCi, Amersham, chloramine-T labelled) were then added. After 16 h at room temperature, the samples were measured in a scintillation measuring apparatus (Wallac 1450).

The subject of series [3] is breast cancer model (MX-1). The following applies: MX-1, 18 mg/kg/day intravenously day 1–3 and day 15–17.
Text: as §1, §2, §3, §4, §5
The compounds are dissolved in 1% aqueous dextrose solution and administered intravenously from day 1–3 and day 15–17.

The subject of series [4] is hemopoietic stem cells (bone marrow cells). Nature of the series: cells. The format is cell-based, mice. Here is the method: Bone marrow cells are flushed out of the femur of mice. 10^5 cells are incubated in McCoy 5A medium (0.3% agar) together with recombinant murine GM-CSF (Genzyme; parent cell colony formation) and the substances (10^−4 to 100 μg/ml) at 37° C. and 7% CO2. 7 days later, the colonies (<50 cells) and clusters (17–50 cells) are counted.

Series [5] has as its system SW480 human large intestine cell line. The format is cell-based. Here is the method:
(§6) The human large intestine cell lines SW 480 and HT29 (ATCC No. CCL 228) and HTB38 and the mouse melanoma cell line B16F10 (CRL 6475) were grown to confluence in Roux dishes in seromed® RPMI 1640 medium (from Biochrom KG, Berlin) with addition of 10% FCS. They were then trypsinized and taken up in RPMI plus 10% FCS to a cell count of 50,000 cells or, for B16F10, 20,000 cells per mL. 100 μL of cell suspension per well were added to a 96 microwell plate and incubated at 37° C. for 1 day in a CO2 incubator. A further 100 μL of RPMI medium and 1 μL of DMSO were then added with the test substances. The growth was checked after day 6. For this purpose, 25 μL of MTT solution (3-(4,5-dimethylthiazol-2-yl)-2,5-diphenyltetrazolium bromide) were added to each well at a starting concentration of 5 mg/mL of water. The plate was incubated at 37° C. for 5 hours in a CO2 incubator. The medium was then aspirated and 100 1L of i-propanol/well were added. After shaking with 100 μL of water for 30 min, the extinction was measured at 595 nm using a Multiplate Reader (BIO-RAD 3550-UV).
(§7) The cytostatic action is indicated in Table 3 as an IC50 value, in each case for the individual cell lines.

In series [6] the test system is HT29 human large intestine cell line. It is filed as cell-based. Here is the method: as §6, §7
In series [7] the test system is B16F10 mouse melanoma cell line. The format is cell-based. Here is the method: as §6, §7
For series [8], the system named is melanoma xenograft (MEXF 989). The format is in vivo, athymic nude mice (NMRI nu/nu strain).
Setting [9] is: IC50 values of the binding to the αVβ3 receptor.
Where [10] appears, read: read-out: IC50 values of the binding to the αVβ3 receptor.

In brackets after ≈: the same amount, converted by molar mass. Like-named read-outs stand apart in the source and are kept apart here.

T1 sequence (P06756 31-889 limits assumed): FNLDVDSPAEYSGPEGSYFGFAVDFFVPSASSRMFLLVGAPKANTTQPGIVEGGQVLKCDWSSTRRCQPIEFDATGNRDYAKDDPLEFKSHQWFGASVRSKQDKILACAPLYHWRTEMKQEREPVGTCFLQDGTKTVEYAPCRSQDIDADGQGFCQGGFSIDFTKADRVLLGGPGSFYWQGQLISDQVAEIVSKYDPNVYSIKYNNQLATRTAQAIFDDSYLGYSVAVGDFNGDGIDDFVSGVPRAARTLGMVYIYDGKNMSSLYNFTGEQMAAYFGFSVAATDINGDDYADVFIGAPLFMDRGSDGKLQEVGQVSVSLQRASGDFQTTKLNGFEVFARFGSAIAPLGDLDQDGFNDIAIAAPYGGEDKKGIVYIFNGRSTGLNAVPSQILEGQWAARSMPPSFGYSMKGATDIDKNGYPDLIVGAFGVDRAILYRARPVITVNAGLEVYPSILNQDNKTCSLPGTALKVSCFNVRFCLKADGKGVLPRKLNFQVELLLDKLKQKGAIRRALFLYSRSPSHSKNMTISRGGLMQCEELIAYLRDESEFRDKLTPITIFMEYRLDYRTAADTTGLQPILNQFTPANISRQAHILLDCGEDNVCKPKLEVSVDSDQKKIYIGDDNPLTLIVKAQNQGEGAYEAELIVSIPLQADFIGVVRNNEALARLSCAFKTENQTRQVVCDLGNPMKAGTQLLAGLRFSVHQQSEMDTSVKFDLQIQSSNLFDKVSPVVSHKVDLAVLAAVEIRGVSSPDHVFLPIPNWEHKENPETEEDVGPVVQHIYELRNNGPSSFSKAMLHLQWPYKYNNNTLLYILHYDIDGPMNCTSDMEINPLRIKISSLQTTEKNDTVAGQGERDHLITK
T1 sequence (P06756 891-1048 partner limits assumed): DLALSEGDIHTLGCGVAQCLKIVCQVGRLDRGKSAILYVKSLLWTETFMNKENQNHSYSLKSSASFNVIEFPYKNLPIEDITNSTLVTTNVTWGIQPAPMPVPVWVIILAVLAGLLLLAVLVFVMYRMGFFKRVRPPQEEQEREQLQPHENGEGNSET
T1 sequence (P05106 27-788): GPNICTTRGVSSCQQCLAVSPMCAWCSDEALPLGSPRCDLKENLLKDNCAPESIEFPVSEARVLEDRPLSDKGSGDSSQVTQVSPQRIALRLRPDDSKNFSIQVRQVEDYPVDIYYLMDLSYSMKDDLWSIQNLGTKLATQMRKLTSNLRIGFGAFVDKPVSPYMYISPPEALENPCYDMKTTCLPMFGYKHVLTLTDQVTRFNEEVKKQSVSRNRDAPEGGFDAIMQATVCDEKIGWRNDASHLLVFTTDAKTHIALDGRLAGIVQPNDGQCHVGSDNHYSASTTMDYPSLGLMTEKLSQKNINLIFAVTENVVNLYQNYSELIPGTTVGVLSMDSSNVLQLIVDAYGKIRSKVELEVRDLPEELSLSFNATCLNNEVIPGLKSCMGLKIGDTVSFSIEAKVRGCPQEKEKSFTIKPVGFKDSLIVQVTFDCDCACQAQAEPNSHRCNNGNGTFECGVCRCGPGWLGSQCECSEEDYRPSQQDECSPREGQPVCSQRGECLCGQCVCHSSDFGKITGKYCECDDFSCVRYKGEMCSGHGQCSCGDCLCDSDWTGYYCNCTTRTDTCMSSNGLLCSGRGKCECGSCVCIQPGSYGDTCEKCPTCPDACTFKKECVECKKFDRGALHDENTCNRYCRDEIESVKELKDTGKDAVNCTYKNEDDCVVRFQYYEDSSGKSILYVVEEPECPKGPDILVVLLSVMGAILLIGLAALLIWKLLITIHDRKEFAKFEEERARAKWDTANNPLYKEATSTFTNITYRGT

For the compound `CCCNC(=O)Nc1cccc(S(=O)(=O)Nc2cccc(C(CC(=O)[O-])NC(=O)Nc3ccc(NC(=S)NCC(=O)N4CCC[C@H]4C(=O)N[C@H](C(=O)O[C@]4(CC)C(=O)OCc5c4cc4n(c5=O)Cc5cc6ccccc6nc5-4)C(C)C)cc3)c2)c1.[Na+]` (single isomer, unassigned) [Example 1], the lethality was 1/7 in series [1] (RXF 944, 18 mg/kg/day intravenously day 1–3 and day 15–17); 0/7 in series [1] (RXF 944, 24 mg/kg/day intravenously day 1–3 and day 15–17); 0/5 in series [3]; 1/5 in series [8] (MEXF 989, 18 mg/kg/day intravenously day 1–3 and day 15–17); 1/5 in series [8] (MEXF 989, 24 mg/kg/day intravenously day 1–3 and day 15–17). Besides, the IC50 in series [2] (setting [9]) came to 8 nM; in series [5], 150 nM; in series [6] it was 60 nM; in series [7], 160 nM. For the same compound, the “toxicity against stem cells in vitro compared to camptothecin (in words)” value (shortened to “toxicity … compared to camptothecin (in words)”) in series [4] is on record as “drastically reduced toxicity against stem cells in vitro compared to camptothecin”.

Turning to `CCCNC(=O)Nc1cccc(S(=O)(=O)Nc2cccc(C(CC(=O)[O-])NC(=O)Nc3ccc(NC(=S)NCC(=O)N4CCC[C@H]4C(=O)N[C@H](C(=O)O[C@]4(CC)C(=O)OCc5c4cc4n(c5=O)Cc5cc6ccccc6nc5-4)C(C)C)cc3)c2)c1.[Na+]` (single isomer, unassigned) [Example 2], the IC50 was determined as 800 nM in series [2] (setting [9]), 400 nM in series [5], 150 nM in series [6] and 400 nM in series [7]. In addition, the “toxicity … compared to camptothecin (in words)” value in series [4] was “drastically reduced toxicity against stem cells in vitro compared to camptothecin”.

For `CCCNC(=O)Nc1cccc(S(=O)(=O)Nc2cccc(C(CC(=O)O)NC(=O)Nc3ccc(NC(=S)N[C@@H](C)C(=O)N4CCC[C@H]4C(=O)N[C@H](C(=O)O[C@]4(CC)C(=O)OCc5c4cc4n(c5=O)Cc5cc6ccccc6nc5-4)C(C)C)cc3)c2)c1` (single isomer, unassigned) [Example 4], the 50% inhibitory concentration (IC50) in series [2] (setting [10]) is 500 nM; in series [5] it was 600 nM; in series [6], 150 nM; in series [7], 700 nM. The “toxicity … compared to camptothecin (in words)” value in series [4] is recorded as “drastically reduced toxicity against stem cells in vitro compared to camptothecin”.

Regarding `CCCNC(=O)Nc1cccc(S(=O)(=O)Nc2cccc(C(CC(=O)O)NC(=O)Nc3ccc(NC(=S)N[C@@H](Cc4c[nH]cn4)C(=O)N4CCC[C@H]4C(=O)N[C@H](C(=O)O[C@]4(CC)C(=O)OCc5c4cc4n(c5=O)Cc5cc6ccccc6nc5-4)C(C)C)cc3)c2)c1` (single isomer, unassigned) [Example 5], the IC50 was determined as 30 nM in series [2] (setting [10]), 700 nM in series [5], 300 nM in series [6] and 1000 nM in series [7].

Consider `CCCNC(=O)Nc1cccc(S(=O)(=O)Nc2cccc(C(CC(=O)O)NC(=O)Nc3ccc(NC(=S)N[C@@H](CC(N)=O)C(=O)N4CCC[C@H]4C(=O)N[C@H](C(=O)O[C@]4(CC)C(=O)OCc5c4cc4n(c5=O)Cc5cc6ccccc6nc5-4)C(C)C)cc3)c2)c1` (single isomer, unassigned) [Example 6], for which the IC50 in series [2] (setting [10]) was found to be 100 nM; in series [5] it was 400 nM; in series [6], 200 nM; in series [7], 600 nM.

Regarding `CCCNC(=O)Nc1cccc(S(=O)(=O)Nc2cccc(C(CC(=O)O)NC(=O)Nc3ccc(NC(=S)N[C@@H](CCC)C(=O)N4CCC[C@H]4C(=O)N[C@H](C(=O)O[C@]4(CC)C(=O)OCc5c4cc4n(c5=O)Cc5cc6ccccc6nc5-4)C(C)C)cc3)c2)c1` (single isomer, unassigned) [Example 7], the IC50 in series [2] (setting [10]) is 100 nM; in series [5], 600 nM; in series [6] it was 350 nM; in series [7], 1000 nM.

In the case of `CCCNC(=O)Nc1cccc(S(=O)(=O)Nc2cccc(C(CC(=O)O)NC(=O)Nc3ccc(NC(=S)N[C@@H](CC(=O)O)C(=O)N4CCC[C@H]4C(=O)N[C@H](C(=O)O[C@]4(CC)C(=O)OCc5c4cc4n(c5=O)Cc5cc6ccccc6nc5-4)C(C)C)cc3)c2)c1` (single isomer, unassigned) [Example 8], the IC50 in series [5] stood at 50 nM; in series [6] it was 50 nM; in series [7], 300 nM.

With `CCCNC(=O)Nc1cccc(S(=O)(=O)Nc2cccc(C(CC(=O)O)NC(=O)Nc3ccc(NC(=S)NCC(=O)N4CCC[C@H]4C(=O)N[C@@H](CC(C)C)C(=O)O[C@]4(CC)C(=O)OCc5c4cc4n(c5=O)Cc5cc6ccccc6nc5-4)cc3)c2)c1` (single isomer, unassigned) [Example 9], the results for the half-inhibitory concentration (IC50) in series [5], in series [6] and in series [7] were 70 nM, 30 nM and 80 nM, respectively.

With `CCCNC(=O)Nc1cccc(S(=O)(=O)Nc2cccc(C(CC(=O)O)NC(=O)Nc3ccc(NC(=S)N[C@@H](C)C(=O)N4CCC[C@H]4C(=O)N[C@@H](CC(C)C)C(=O)NC4C=CCC5CN(c6c(F)cc7c(=O)c(C(=O)O)cn(C8CC8)c7c6Cl)CC54)cc3)c2)c1` (single isomer, unassigned) [Example 12], the half-inhibitory concentration (IC50) in series [2] (setting [10]) amounted to 30 nM; in series [5] (6 days), 1000 nM; in series [6] (6 days) it was 600 nM; in series [7] (6 days), 2000 nM.

Turning to `CC[C@@]1(O)C(=O)OCc2c1cc1n(c2=O)Cc2cc3ccccc3nc2-1` [camptothecin, 20(S)-Camptothecin, reference compound], in series [1] (RXF 944, 2.5 mg/kg/day), the lethality was 0/6 and the “optimal T/C” value is recorded as 41.1%. Further, the IC50 in series [4] (Mus musculus, Bone marrow cell, 168 h, murine bone marrow cells, GM-CSF, 7 days, read-out: IC50 values of toxicity against hemopoietic stem cells) turned out to be 3 ng/mL (≈ 8.61 nM).

As to `CC[C@@]1(O)C(=O)OCc2c1cc1n(c2=O)Cc2cc3c(CN(C)C)c(O)ccc3nc2-1` [topotecan, reference compound], in series [1] (RXF 944, 1.8 mg/kg/day), the lethality is listed as 0/7 and the “optimal T/C” value came out at 47.8%.
